Experimental data from patent US6703382B2, “Small molecule inhibitors targeted at Bcl-2” (Georgetown University Medical Center, priority 2000, dated 2004).

Assays:
[1] = target: Bcl-2 (GST-fused soluble protein) / Flu-Bak-BH3 peptide (Homo sapiens, UniProt P10415); conditions: competitive FP assay, FIG. 1
T 47D cells = test: Hoechst Dye apoptosis assay, T47D; format: cell-based, human; conditions: 10 μM, 12 hours, low Bcl-2 expression
From the text: (§1) Bcl-2 protein expression in human breast and other cancer cell line is characterized herein. Cell lines MCF-7, MDA-231 and MDA-361 express high levels of Bcl-2; MDA-468, BT474 and MDA-435 express median levels. […] Human myeloid leukemia cell HL-60 expresses the highest level of Bcl-2 protein among all the cell lines examined. Accordingly, MDA-231 and HL-60 cell lines with high Bcl-2 expression are positive cells and MDA-453 and T47D are negative control cells. The level of Bcl-2 protein expression is detected by Western blotting.
(§2) Using a Hoechst Dye assay, cells are treated at different doses for 12 hours and apoptotic cells are visually identified and counted under the microscope. Induction of apoptosis is evident after the treatment with Formula II at 10 μM in MDA-453 or T 47D cell lines, cells with low Bcl-2 expression.

MDA-231 cells [2] = test: Trypan-blue exclusion cell survival assay, MDA-231; format: cell-based; conditions: Homo sapiens, MDA-MB-231; MDA-231, trypan-blue exclusion; read-out: cell killing IC50
Protocol: (§3) FIG. 3. Illustrated the effects of the compound of formula II on cell viability. Cells are plated in 24-well plates, incubated with said compound at appropriate concentrations for 14 hr. Cell viability is determined by trypan blue exclusion with hemocytometer. Percent of viable cells, as compared with untreated cells, is plotted against drug concentration.
(§4) The ability of Formula II to inhibit cell viability is highly specific and correlates well with the Bcl-2 protein expression level in these cancer cells.

MDA-453 cells = test: Hoechst Dye apoptosis assay, MDA-453; format: cell-based, human; conditions: 10 μM, 12 hours, MDA-453, low Bcl-2 expression
From the text: as §1, §2

MDA-231 cells [3] = test: Annexin-V FACS apoptosis assay, MDA-231; format: cell-based, human; conditions: 24 hours
Protocol: (§5) The Annexin-V FACS assay yields a more quantitative assessment of the ability of Formula II to induce of apoptosis in HL-60 and MDA-231 cells. MDA-231 cells treated with 0 (untreated), 4 and 10 μM of Formula II for 24 hours provide 0, 13% and 20.0% apoptotic cells, respectively, while HL-60 cells treated with 0, 5, 10, and 20 μM of Formula II for 24 hours provide 0, 24%, 31% and 67% of apoptotic cells, respectively (FIG. 3). Therefore, Formula II induces apoptosis in a highly dose-dependent manner in MDA-231 and HL-60 cell lines with Bcl-2 protein overexpression.

HL-60 cells [4] = test: Trypan-blue exclusion cell survival assay, HL-60; format: cell-based; conditions: Homo sapiens; HL-60, trypan-blue exclusion; read-out: cell killing IC50
Protocol: as §3, §4

MDA-231 cells [5] = test: Hoechst Dye apoptosis assay, MDA-231; format: cell-based, human; conditions: 10 μM, 12 hours, MDA-231, high Bcl-2 expression
From the text: as §1, §2

HL-60 cells [6] = test: Annexin-V FACS apoptosis assay, HL-60; format: cell-based, human; conditions: 24 hours
Protocol: as §5

HL-60 cells [7] = test: Hoechst Dye apoptosis assay, HL-60; format: cell-based, human; conditions: 10 μM, 12 hours, HL-60, high Bcl-2 expression
From the text: as §1, §2

Sequence of Bcl-2 (GST-fused soluble protein) / Flu-Bak-BH3 peptide (P10415 1-205 limits assumed): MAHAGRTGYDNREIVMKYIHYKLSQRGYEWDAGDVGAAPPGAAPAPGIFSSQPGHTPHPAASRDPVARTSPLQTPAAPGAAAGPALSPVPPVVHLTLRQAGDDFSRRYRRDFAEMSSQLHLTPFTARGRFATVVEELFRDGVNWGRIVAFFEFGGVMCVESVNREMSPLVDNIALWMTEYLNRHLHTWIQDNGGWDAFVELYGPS

COc1ccc2c(c1)CCc1cc(OC)ccc1[N+]([O-])=[N+]2[O-] [Formula II, 2,9-dimethoxy-11,12-dihydrodibenzo[c,g][1,2] diazocine-5,6-dioxide]
inhibition of the binding of the Bak-BH3 peptide to Bcl-2 in vitro [1]: inhibits the binding | induction of apoptosis (T 47D cells): evident | IC50 (MDA-231 cells [2]): 15 µM | induction of apoptosis (MDA-453 cells): evident | apoptotic cells (MDA-231 cells [3]; MDA-231, 4 μM): 13% | apoptotic cells (MDA-231 cells [3]; MDA-231, 10 μM): 20.0% | IC50 (HL-60 cells [4]): 12 µM | induction of apoptosis (MDA-231 cells [5]): significant apoptosis | apoptotic cells (HL-60 cells [6]; HL-60, 5 μM): 24% | apoptotic cells (HL-60 cells [6]; HL-60, 10 μM): 31% | apoptotic cells (HL-60 cells [6]; HL-60, 20 μM): 67% | induction of apoptosis (HL-60 cells [7]): significant apoptosis
